Experimental data taken from PubChem BioAssay AID2305 (GlaxoSmithKline (GSK), 2010).
Values joined by “and” are separate entries in the source; they are usually repeats but may differ in a detail not shown here. Equal values may be shown once.

System: P. falciparum 3D7 growth, pLDH absorbance
Test: blood-stage malaria parasite growth potency – strain 3D7, dose response (AID 2305)

SMILES | IC50
Nc1ccc(Nc2ccnc3ccc(C(F)(F)F)cc23)cc1O | 720 nM
Cc1[nH]cc(Br)c(=O)c1-c1ccc(Oc2ccccc2)cc1 | 680 nM
COc1ccccc1CNc1ncc(-c2ccsc2)c(-c2nccs2)n1 | 330 nM
c1cc(C2=N[C@H]3CCCC[C@@H]3N2)ccc1OCCCCCOc1ccc(C2=N[C@@H]3CCCC[C@H]3N2)cc1 | 230 nM
CNCCNCc1cccc(-c2cccc(-c3nc4ccc(F)cc4[nH]3)c2)c1 | 670 nM
COc1ccc(O)cc1Cc1cnc2nc(N)nc(N)c2c1C | 10 nM
CS(=O)(=O)CCNCc1nc(-c2ccc3c(Nc4ccc(Oc5ccccn5)cc4)ccnc3c2)cs1 | 680 nM
CCOC(=O)C1=C(C)NC(C)=C(C(=O)OCC)C1(C(=O)OCc1ccccc1)c1cccc(C(F)(F)F)c1 | 1230 nM
Cc1ccc(NC(=O)c2ccc(NCCCN3CC(C)CC(C)C3)c([N+](=O)[O-])c2)cc1F (stereo not given) | 710 nM
COc1cc(SC)c(Br)cc1-c1nc2ccncc2[nH]1 | 1100 nM
Cc1cc(NN=Cc2ccccc2F)c2cc(C(F)(F)F)ccc2n1 | 430 nM
COc1ccc2nccc([C@@H](O)CN3CCC(NCCOc4cccc(C(F)(F)F)c4)CC3)c2c1 | 160 nM
Cn1cncc1C(=O)Nc1ccc(-c2cccc(-c3nc4ccc(F)cc4[nH]3)c2)cc1 | 820 nM
CN1CCC(C(=O)N(Cc2ccc(-c3ccc(CNCCc4ccccc4)cn3)cc2)C2CCN(Cc3ccccc3)CC2)CC1 | 790 nM
CN(C)CCNCc1nc(-c2ccc3c(Nc4ccc(Oc5ccccc5)cc4)ccnc3c2)cs1 | 740 nM
O=c1[nH]c(=O)n2c(nc3ccccc32)[nH]1 | 170 nM
Cc1sc(C)c(CNCCCNc2cc(=O)c3ccccc3[nH]2)c1Br | 880 nM
COc1ccc2nccc(NN=Cc3ccccc3[N+](=O)[O-])c2c1 | 70 nM
CN(c1cc(NC(=O)c2cccs2)ccn1)C1CCN(Cc2ccccc2)CC1 | 1020 nM
NS(=O)(=O)c1ccc(CNc2ccc3ncc(-c4ccc(Cl)cc4)n3n2)cc1 | 280 nM
NC(N)=Nc1nc(-c2cccc(NC(=O)Cc3ccccc3)c2)cs1 | 1000 nM
CCOC(=O)c1ccc(N2CCN(c3cc(C)ccc3C)CC2)c(NC(=O)Nc2ccc(Cl)c(Cl)c2)c1 | 710 nM
c1ccc(-c2cccnn2)cc1 | 910 nM
CCOC(=O)c1c(C)n(-c2ccc(Cl)cc2)c2ccc(OC(=O)C=Cc3ccccc3)cc12 | 700 nM

SMILES | IC50
O=C(Nc1ccc2c(c1)CCC2)c1ccc(N2CCN(c3ccncc3)CC2)cc1 | 1130 nM
COc1ccc(CN(C)CCCOc2ccc(NC(=O)c3cccc4c(=O)c5cccc(F)c5[nH]c34)cc2)cc1OC | 640 nM
Cc1cccc2[nH]c(-c3cccc(-c4ccc(CN5CCN(CCO)CC5)cc4)c3)nc12 | 820 nM
CC(C)c1cccc(OCC2CCN(c3ncc(C(=O)Nc4ccccc4)cc3Cl)CC2)c1 | 1060 nM
COc1cc2nc(N[C@@H](CO)c3ccccc3)nc(NCc3ccccc3)c2cc1OC | 660 nM
O=C(N[C@@H](Cc1ccccc1)C(=O)NC1CCCc2ccccc21)c1ccc(O)c(-c2ccc(Cl)c(Cl)c2)c1 (stereo not given in full) | 210 nM
Cc1noc(-c2ccc3c(c2)CCN(CCC2CCC(NC(=O)/C=C/c4cccc(Cl)c4)CC2)CC3)n1 (stereo not given) | 1000 nM
CCCN(CCC)C(=O)c1cc(C(=O)N[C@@H](Cc2ccccc2)[C@H](O)CNCc2cccc(OC)c2)cc(N2CCCCS2(=O)=O)c1 | 550 nM
COc1cccc(C(=O)N2CCN(Cc3cccc(NC(=O)c4cccs4)c3)CC2)c1 | 480 nM
Cc1nc(-c2cccc(Nc3nccc(NCC(O)c4ccccc4)n3)c2)cs1 (stereo not given) | 790 nM
CC(=NN=C(N)N)c1ccc2ccc3ccccc3c2c1 | 890 nM
Nc1ncnc2cc(-c3cccc(S(N)(=O)=O)c3)sc12 | 150 nM
Cc1ccc(CN2CCN(Cc3cccc(NC(=O)c4ccc5ccccc5c4)c3)CC2)cc1C | 1220 nM
COc1cc(NC(=O)/C=C/c2cc(F)cc(F)c2F)cc(OCCN2CCN(CCN3CCOCC3)CC2)c1 | 770 nM
CCN(CC)CCCN(CCCN(CC)CC)c1cc(C)nc(Nc2ccc(Cl)cc2)n1 | 210 nM
COC(=O)c1ccccc1COc1ccc(CC2(NC(=O)[C@H](Nc3ccc(C#N)c4ccccc34)C(C)(C)C)CCCC2)cc1 | 860 nM
CCN(CC)CCN(Cc1ccc(-c2ccc(C(F)(F)F)cc2)cc1)C(=O)Cn1c(SCc2ccc(F)cc2)cc(=O)c2ccccc21 | 750 nM
c1cc2nc(CCc3nc4ccc(C5=N[C@H]6CCCC[C@H]6N5)cc4[nH]3)[nH]c2cc1C1=N[C@@H]2CCCC[C@@H]2N1 | 230 nM
Cc1noc(-c2ccc3c(c2)CCN(CCC2CCC(NC(=O)/C=C/c4ccc(F)cc4)CC2)CC3)n1 (stereo not given) | 1030 nM
CCc1ccc(C2CCN(CCCCNC(=O)c3ccc(NC(=O)c4ccc(Cl)cc4)cc3)CC2)c(OCC(=O)OC)c1 | 1030 nM
COc1ccc2nccc([C@@H](O)CN3CCC(NCc4ccc5c(c4)oc(=S)n5C)CC3)c2c1 | 190 nM
Cc1cccc(C)c1OC(=O)[C@@H](C)[C@@H](O)C1(Sc2ccccc2)CCN(C)CC1 | 730 nM
N#Cc1cccc(NC(=O)c2ccc(S(=O)(=O)NCC3CCCN3CC3CCCCC3)cc2)c1 (stereo not given) | 1050 nM
O=C(N[C@H]1CCN(Cc2ccc(OC3CCN(Cc4ccccc4)CC3)cc2)C1)c1ccc(Cl)c(Cl)c1 | 730 nM

SMILES | IC50
CC(C)Oc1ccccc1-c1csc(C(=O)NCC2CCN(Cc3ccc(C(C)(C)C)cc3)C2)c1 (stereo not given) | 1070 nM
O=C(Nc1ccc(CN2CCOCC2)cc1)c1ccc(-c2ccc(Br)cc2)o1 | 1120 nM
CC(Cc1ccc(SC(C)C)cc1)NCC(O)c1cccc(Cl)c1 (stereo not given) | 830 nM
CCC1CN2CCc3c([nH]c4ccccc34)C2CC1CC1=NCCc2c1[nH]c1ccc(OC)cc21 (stereo not given) | 640 nM
CO/C(=C\C=C\c1cc2cc(Cl)c(Cl)cc2[nH]1)C(=O)NCCCN(C)CCN(C)c1ccccc1 | 830 nM
Cc1cc(N[C@@H](Cc2ccccc2)C(=O)NC2CCCC2)nc(NCc2ccccc2C)n1 | 1230 nM
CCN(CC)CCN(Cc1ccc(-c2ccc(C(F)(F)F)cc2)cc1)C(=O)Cn1nc(-c2ccc(C(F)(F)F)cc2)ccc1=O | 800 nM
COc1ccc(-c2ccc(CN(C)C3CCC(NC(=O)c4cc5ccccc5[nH]4)CC3)cc2)cn1 (stereo not given) | 870 nM
CC(C)C[C@@H](NC(=O)OC(C)(C)C)C(=O)Nc1ccc(Cc2ccc(NC(=O)[C@@H](CC(C)C)NC(=O)OC(C)(C)C)cc2)cc1 | 210 nM
COc1cccc2c(NN=Cc3ccccc3Cl)cc(C)nc12 | 210 nM
CC(C)CNCc1ccc(-c2cccc(CN(C(=O)NCCc3ccccc3)C3CCN(Cc4ccccc4)CC3)c2)cc1 | 580 nM
Nc1c2c(nc3ccc(NC(=O)c4ccccc4)cc13)CCCC2 | 610 nM
COc1ccccc1C1CCN(C2CCC(NC(=O)c3ccc4nc(-c5ccc(C)cc5)[nH]c4c3)CC2)CC1 (stereo not given) | 310 nM
NS(=O)(=O)c1cccc(Nc2nccc(-c3c(-c4cccc(NC(=O)c5c(F)cccc5F)c4)nn4ccccc34)n2)c1 | 70 nM
Cc1ccc2nc(-c3ccccc3Nc3ccnc4cc(-c5nccs5)ccc34)[nH]c2c1 | 190 nM
COc1cc(-n2c(CN3CCCC3)nc3cc(-c4ccc(Cl)cc4)sc3c2=O)ccc1OCCN1CCCC1 | 1040 nM
CN(C)CCNC(=O)[C@H](Cc1ccccc1)NC(=O)c1ccc(O)c(-c2ccc(Cl)c(Cl)c2)c1 | 710 nM
O=C(c1ccc(O)c(-c2cc(Cl)cc(Cl)c2)c1)N(CCO)CCO | 910 nM
CC(C)COc1ccc(Cl)cc1Nc1nc(-c2nc3ccccc3[nH]2)cs1 | 880 nM
O=c1c2c([nH]c3cc(Cl)ccc13)CCCC2 | 810 nM
O=C(/C=C/c1cccs1)NCC(NCCCNc1cc(=O)c2ccccc2[nH]1)c1cc(Br)cc(Br)c1 (stereo not given) | 890 nM
Cc1cc(C)c(C(=O)Nc2n[nH]c3nnc(-c4cccc(F)c4F)cc23)c(C)c1 | 1070 nM
O=C(/C=C/c1ccc(Cl)c(Cl)c1)NC1[C@@H]2CC[C@H]1CC(CN1CCC(c3c[nH]c4ccccc34)CC1)C2 (stereo not given in full) | 200 nM
CC(C)(C)c1ccc(C(=O)Nc2ccc(NC(=O)c3ccc([N+](=O)[O-])o3)cc2)cc1 | 840 nM

SMILES | IC50
O=C(Nc1cccc(Cl)c1)OC1CCCN2CCCCC12 (stereo not given) | 1020 nM
CC(Nc1nc(Nc2ccc(F)cc2)nc(SCC(N)=O)n1)c1ccccc1 (stereo not given) | 500 nM
Cc1cccc2[nH]c(-c3cccc(-c4ccc(CNCc5ccccc5)cc4)c3)nc12 | 150 nM
Cc1ccc(NC(=O)NC2CCN(CCC(NC(=O)Cc3ccccc3)c3ccc(Cl)c(Cl)c3)CC2)cc1 (stereo not given) | 620 nM
O=C(Nc1ccc2ccccc2c1)N1CCC(NCc2cccc([N+](=O)[O-])c2)CC1 | 860 nM
N#Cc1ccc2c(c1)CN(CCC1CCC(NC(=O)/C=C/c3c[nH]c4ccccc34)CC1)CC2 (stereo not given) | 990 nM and 900 nM
Cc1ccc(NC(=O)c2ccc(CN3CCCN(Cc4cccc(O)c4)CC3)cc2)cc1C | 860 nM
COc1ccc2nccc([C@@H](O)CN3CCC(NCCOc4ccc(F)cc4F)CC3)c2c1 | 140 nM
COc1ccc2nccc([C@@H](O)CN3CCC(NCCOc4ccccc4[N+](=O)[O-])CC3)c2c1 | 380 nM
c1ccc(Oc2ccc(Nc3ccnc(Nc4ccc(CN5CCOCC5)cc4)n3)cc2)cc1 | 940 nM
COc1cc2nc(NC3CCN(Cc4ccccc4)CC3)nc(N)c2cc1OC | 170 nM
COc1nc(Nc2cccc(C)c2)nc(OC)n1 | 1010 nM
OCCN1CCN(Cc2cccc(-c3cccc(-c4nc5ccc(F)cc5[nH]4)c3)c2)CC1 | 710 nM
CC(C)CNCc1cccc(-c2ccc(CN(C(=O)NCCc3ccccc3)C3CCN(Cc4ccccc4)CC3)cc2)c1 | 760 nM
Cc1cc2nc(-c3ccc(SCC(=O)Nc4ccc5c(c4)OCCO5)nc3)[nH]c2cc1C | 990 nM
O=C(NCc1ccccc1)C1Cc2c([nH]c3ccc(Br)cc23)C2(CCN(Cc3ccccc3)CC2)N1 (stereo not given) | 870 nM
NC(=O)c1cccc(CN2Cc3ccccc3OC3(CCN(Cc4c[nH]c5cnccc45)CC3)C2)c1 | 1060 nM
O=C(NCCCCN1CCC(c2ccc3c(c2OC(=O)c2ccc(NC(=O)c4ccc(Cl)cc4)cc2)CCCC3)CC1)c1ccc(NC(=O)c2ccc(Cl)cc2)cc1 | 200 nM
COc1ccc2nccc([C@@H](O)CN3CCC(NC(=O)c4ccc5cc[nH]c5c4)CC3)c2c1 | 970 nM
CN(Cc1ccc(NC(=O)NC2CCN(C(=O)/C=C/c3ccc(Cl)c(Cl)c3)CC2)cc1)C1CCOCC1 | 880 nM
Cc1cc(N(C)C)nc(Nc2ccc(NC(=O)c3c(F)cccc3Cl)cc2)n1 | 1090 nM
COc1ccc(C(=O)C2CCN(CCCCNC(=O)c3ccc(NC(=O)c4cc(Cl)cc(Cl)c4)cc3)CC2)cc1 | 170 nM
CCOc1ccc(N2CCN(CCCCNC(=O)c3ccc(NC(=O)c4ccc(Cl)cc4)cc3)CC2)c(OCC)c1 | 570 nM
